Patent US10781211B2, “Spirocycle compounds and methods of making and using same” (Lundbeck La Jolla Research Center, Inc., priority 2016, dated 2020)

Assays:
[1] = target: T1, FAAH (Mus musculus (Mouse), UniProt O08914); experiment: In vitro competitive activity-based protein profiling (mouse brain membrane proteome), FAAH band; format: biochemical; conditions: for inhibition at 1 µM: read-out: FAAH % Inh 1 μM (mouse)
Description: (§1) In Vitro Competitive Activity-Based Protein Profiling.
(§2) Proteomes (mouse brain membrane fraction or cell lysates) (50 μL, 1.0 mg/mL total protein concentration) were preincubated with varying concentrations of inhibitors at 37° C. After 30 min, FP-Rh (1.0 μL, 50 μM in DMSO) was added and the mixture was incubated for another 30 min at 37° C. Reactions were quenched with SDS loading buffer (50 μL-4X) and run on SDS-PAGE. Following gel imaging, serine hydrolase activity was determined by measuring fluorescent intensity of gel bands corresponding to MAGL, ABHD6 and FAAH using ImageJ 1.43 u software.

[2] = target: T1, FAAH; experiment: Mouse brain proteomes from inhibitor treated mice (oral gavage, sacrifice 4 h after administration, ABPP analysis), FAAH; format: in vivo; conditions: 5 mg/kg oral gavage
How it was run: (§3)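 Percent inhibition in brain tissue measured by ABPP 4 h after a single oral gavage dose (5 mg/kg) to wild-type C57Bl/6J mice; vehicle was, for example, PEG400/Ethanol/PBS at 7/2/1.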

[3] = target: T2, MAGL (Mus musculus (Mouse), UniProt O35678); experiment: Mouse brain proteomes from inhibitor treated mice (oral gavage, sacrifice 4 h after administration, ABPP analysis); format: in vivo; conditions: 5 mg/kg oral gavage
T2 sequence (O35678 whole entry): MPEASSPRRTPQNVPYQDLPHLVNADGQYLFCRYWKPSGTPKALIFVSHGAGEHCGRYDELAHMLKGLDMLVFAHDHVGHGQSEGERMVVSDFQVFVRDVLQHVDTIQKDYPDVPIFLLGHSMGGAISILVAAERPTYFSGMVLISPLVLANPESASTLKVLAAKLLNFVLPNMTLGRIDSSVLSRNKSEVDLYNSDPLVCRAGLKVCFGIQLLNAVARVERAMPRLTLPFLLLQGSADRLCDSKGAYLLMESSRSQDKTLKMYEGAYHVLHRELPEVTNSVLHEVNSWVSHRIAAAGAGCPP
How it was run: as §3

[4] = target: T3, ABHD6 (Mus musculus (Mouse), UniProt Q8R2Y0); experiment: Mouse brain proteomes from inhibitor treated mice (oral gavage, sacrifice 4 h after administration, ABPP analysis), ABHD6; format: in vivo; conditions: 5 mg/kg oral gavage
T3 sequence (Q8R2Y0 whole entry): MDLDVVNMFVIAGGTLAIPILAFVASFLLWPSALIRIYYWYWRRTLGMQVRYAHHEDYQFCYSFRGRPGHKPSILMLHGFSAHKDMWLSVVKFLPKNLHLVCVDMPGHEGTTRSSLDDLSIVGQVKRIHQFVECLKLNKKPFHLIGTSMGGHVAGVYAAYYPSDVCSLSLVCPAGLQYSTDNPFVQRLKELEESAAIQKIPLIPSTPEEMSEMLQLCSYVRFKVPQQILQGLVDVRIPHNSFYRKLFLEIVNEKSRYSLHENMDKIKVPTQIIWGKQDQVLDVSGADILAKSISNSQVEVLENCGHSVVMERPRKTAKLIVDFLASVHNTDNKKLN
How it was run: as §3

[5] = target: T2, MAGL; experiment: In vitro competitive activity-based protein profiling (mouse brain membrane proteome), MAGL band; format: biochemical; conditions: for inhibition at 1 µM: read-out: MAGL % Inh 1 μM (mouse)
Description: as §1
Proteomes (mouse brain membrane fraction or cell lysates) (50 μL, 1.0 mg/mL total protein concentration) were preincubated with varying concentrations of inhibitors at 37° C. After 30 min, FP-Rh (1.0 μL, 50 μM in DMSO) was added and the mixture was incubated for another 30 min at 37° C. Reactions were quenched with SDS loading buffer (50 μL-4X) and run on SDS-PAGE.

[6] = target: T3, ABHD6; experiment: In vitro competitive activity-based protein profiling (mouse brain membrane proteome), ABHD6 band; format: biochemical; conditions: read-out: ABHD6 % Inh 1 μM (mouse)
Description: as §1, §2

[7] = target: MAGL (Homo sapiens (Human), UniProt Q99685); experiment: In vitro competitive activity-based protein profiling (human prefrontal cortex or cell membrane fractions; hMAGL expressed in HEK293T cells); format: biochemical; conditions: human proteome
MAGL (Homo sapiens (Human), UniProt Q99685), sequence (Q99685 whole entry): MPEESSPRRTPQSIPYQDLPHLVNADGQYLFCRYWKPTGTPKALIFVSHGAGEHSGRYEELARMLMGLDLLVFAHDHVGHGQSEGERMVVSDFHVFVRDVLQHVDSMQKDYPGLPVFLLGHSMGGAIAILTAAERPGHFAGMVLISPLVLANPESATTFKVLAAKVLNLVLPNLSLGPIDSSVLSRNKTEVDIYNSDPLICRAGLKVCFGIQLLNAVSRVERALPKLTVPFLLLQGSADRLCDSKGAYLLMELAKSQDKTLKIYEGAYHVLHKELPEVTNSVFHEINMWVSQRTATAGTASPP
Description: In Vitro Competitive Activity-Based Protein Profiling (Human).
Proteomes (human prefrontal cortex or cell membrane fractions) (50 μL, 1.0-2.0 mg/mL total protein concentration) were preincubated with varying concentrations of inhibitors at 37° C. After 30 min, FP-Rh or JW912 (1.0 μL, 50 μM in DMSO) was added and the mixture was incubated for another 30 min at room temperature. Reactions were quenched with SDS loading buffer (15 μL-4X) and run on SDS-PAGE.
Recombinant Expression of Human MAGL in HEK293T Cells.
Cell lysates were diluted with mock proteomes for use in competitive ABPP experiments.

T1 sequence (O08914 whole entry): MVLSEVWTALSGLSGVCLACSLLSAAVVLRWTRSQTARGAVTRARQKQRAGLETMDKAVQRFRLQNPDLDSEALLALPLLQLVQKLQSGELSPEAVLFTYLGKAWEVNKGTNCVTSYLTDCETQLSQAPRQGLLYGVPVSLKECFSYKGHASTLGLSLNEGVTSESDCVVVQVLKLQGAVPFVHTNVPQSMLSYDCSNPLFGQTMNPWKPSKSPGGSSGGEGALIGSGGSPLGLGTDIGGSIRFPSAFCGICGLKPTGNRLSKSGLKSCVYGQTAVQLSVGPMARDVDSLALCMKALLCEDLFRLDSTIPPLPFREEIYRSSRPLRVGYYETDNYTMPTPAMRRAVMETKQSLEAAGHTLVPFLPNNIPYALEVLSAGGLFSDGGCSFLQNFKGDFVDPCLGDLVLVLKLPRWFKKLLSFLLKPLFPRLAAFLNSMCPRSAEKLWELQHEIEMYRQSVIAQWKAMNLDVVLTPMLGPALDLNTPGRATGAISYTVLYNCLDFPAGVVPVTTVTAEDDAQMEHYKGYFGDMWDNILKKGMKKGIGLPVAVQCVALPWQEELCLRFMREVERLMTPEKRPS

Row | IC50 [1] [nM] | FAAH % Inh 5 mg/kg (mouse) [2] | MAGL % Inh 5 mg/kg (mouse) [3] | ABHD6 % Inh 5 mg/kg (mouse) [4] | IC50 [5] [nM] | inhibition at 1 µM [1] [%] | inhibition at 1 µM [6] [%] | IC50 [7] [nM] | inhibition at 1 µM [5] [%] | SMILES
1 | > 1000 | # (# is < 25%) | ### (### is ≥ 75%) | ### (### is ≥ 75%) | < 100 | – | – | – | – | CC(=O)N1CCCc2cccc(CN3CCC4(CCN(C(=O)OC(C(F)(F)F)C(F)(F)F)CC4)C3)c21 [Example 70, 1,1,1,3,3,3-Hexafluoropropan-2-yl 2-((1-acetyl-1,2,3,4-tetrahydroquinolin-8-yl)methyl)-2,8-diazaspiro[4.5]decane-8-carboxylate]
2 | – | – | – | – | – | < 25 | < 25 | – | – | O=C(O)C1CCN(c2cc(F)ccc2CN2CCCC23CCN(C(=O)OC(C(F)(F)F)C(F)(F)F)CC3)CC1 [Example 235]
3 | – | – | – | – | – | < 25 | < 25 | < 100 | > 75 | CC1(C(=O)O)CCN(c2cc(CN3CCCC34CCN(C(=O)OC(C(F)(F)F)C(F)(F)F)CC4)cc(C(F)(F)F)c2)C1 (stereo not drawn) [Example 231]
4 | – | # (# is < 25%) | ### (### is ≥ 75%) | # (# is < 25%) | – | < 25 | < 25 | < 100 | > 75 | O=C(O)C1CCCCN1c1cc(CN2CCCC23CCN(C(=O)OC(C(F)(F)F)C(F)(F)F)CC3)cc(C(F)(F)F)c1 (stereo not drawn) [Example 226]
5 | – | # (# is < 25%) | ### (### is ≥ 75%) | # (# is < 25%) | – | – | – | – | – | O=C(OC(C(F)(F)F)C(F)(F)F)N1CCC2(CCCN2Cc2cc(N3CCOCC3)cc(C(F)(F)F)c2)CC1 [Example 35, 1,1,1,3,3,3-Hexafluoropropan-2-yl 1-(3-morpholino-5-(trifluoromethyl)benzyl)-1,8-diazaspiro[4.5]decane-8-carboxylate]
6 | – | # (# is < 25%) | ### (### is ≥ 75%) | # (# is < 25%) | – | – | – | – | – | O=C(OC(C(F)(F)F)C(F)(F)F)N1CCC2(CCCN2Cc2ccc(Cl)c(N3CCCC3)c2)CC1 [Example 132, 1,1,1,3,3,3-Hexafluoropropan-2-yl 1-(4-chloro-3-(pyrrolidin-1-yl)benzyl)-1,8-diazaspiro[4.5]decane-8-carboxylate]
7 | – | # (# is < 25%) | ### (### is ≥ 75%) | # (# is < 25%) | – | – | – | – | – | Cc1c(CN2CCCC23CCN(C(=O)OC(C(F)(F)F)C(F)(F)F)CC3)cccc1N1CCCCC1 [Example 84, 1,1,1,3,3,3-Hexafluoropropan-2-yl 1-(2-methyl-3-(piperidin-1-yl)benzyl)-1,8-diazaspiro[4.5]decane-8-carboxylate]
